In patent US20030229027A1, “Stabilized natural cannabinoid formulation” (priority 2002, published 2003):
Where two headings read alike, the source gives them in different places.

Tests used:
[1] = cited from earlier work; for Glass transition temperature: at dry conditions; for Tg / Tg′: comparison with inulin
[2] = Dynamic vapour sorption (gravimetric sorption analyser); format: physicochemical; details: after exposure to 90% RH
Protocol: Water sorption isotherm of freeze dried inulin was measured at ambient pressures and 25° C. using a gravimetric sorption analyser (DVS-1000 Water Sorption Instrument, Surface Measurement Systems Limited, London, UK). The uptake of water by inulin was measured from 0% to 90% RH with steps of 10% RH. The initial sample weight was about 10 mg. It was assumed that equilibrium was reached when the change of weight was less than 0.9 μg during a ten minutes period.
The water sorption of THC was determined according to the procedure described above for inulin. The THC was dissolved in methanol before it was put in the DVS-1000 instrument. During initial exposure to a dry nitrogen flow, the methanol was evaporated. As soon as about 90% of the solvent was evaporated, additional THC solution was added to the sample-cup. This procedure was repeated until 15 mg of pure THC was present in the sample cup. After the evaporation of the last methanol, the relative humidity was increased from 0% to 90% in steps of 10%.

[3] = Modulated DSC, thermal behavior of THC; format: physicochemical; details: mDSC thermogram of THC
Protocol: The thermal behavior of THC was determined by mDSC. A modulation amplitude of ±0.318° C. every 60 sec and a heating rate of 2° C./min was used. During measurement, the sample cell was purged with nitrogen at a flow rate of 35 mL/min. A blob of pure THC was put in the sample cup. After initial cooling the sample was first scanned till 50° C. In this way the blob was able to spread over the entire bottom of the sample pan, thereby increasing the surface available for heat transfer during the second scan. The sample was then cooled until −40° C. and heated to 350° C.

[4] = Stability (no clouding) of water-alcohol solutions of inulin and THC; format: physicochemical; details: 0.4% w/v THC
Protocol: The suitable volume ratio of water/alcohol was investigated by testing the stability of 10% w/v inulin solutions with different ratio's water/alcohol. Inulin was dissolved in different amounts of water (3 to 7 mL). Subsequently different amounts of alcohol were added until a total volume of 10 mL. For THC the same procedure was followed, but now water was added to the alcoholic THC solution. The solution was judged as sufficiently stable if no clouding appeared within the time of processing. For spray drying batches were made which required up to half an hour of spraying. Therefore the solution should be clear for at least that period of time. For freeze drying the solution should be clear until it is frozen. In this case ten minutes is sufficient. Furthermore, it was investigated whether the aqueous inulin solution could be added slowly or should be mixed instantaneously.
The three relevant alcohol's were added to a solution of inulin in water. It was determined for how long the obtained solution stayed clear. After 1 g of inulin was dissolved in 4 mL water, water and/or alcohol was added to a total volume of 10 mL, yielding a 10% w/v solution. The largest concentration of alcohol was thus obtained. THC was dissolved in the alcohol of interest. Subsequently, alcohol and/or water was added to give 0.4% w/v solutions.

[5] = THC-analysis control experiments (degradation of THC in methanol); format: physicochemical
[6] = Solubility of THC in water; details: 20 °C, thermodynamic from solid, stirred 3 days

Compound: OC[C@@H](O)[C@@H](O[C@@H]1O[C@H](CO)[C@H](O)[C@H](O)[C@H]1O)[C@H](O)[C@@H](O)CO [lactitol]
- Glass transition temperature [1]: 33 °C

Compound: OC[C@H]1O[C@H](O[C@H]2O[C@H](CO)[C@@H](O)[C@H](O)[C@H]2O)[C@H](O)[C@@H](O)[C@@H]1O [trehalose]
- Tg [1]: 120 °C
- Tg′ [1]: −36 °C

Compound: OC[C@H]1O[C@@](CO)(O[C@H]2O[C@H](CO)[C@@H](O)[C@H](O)[C@H]2O)[C@@H](O)[C@@H]1O [sucrose]
- Tg [1]: 76 °C
- Tg′ [1]: −39 °C

Compound: CCCCCc1cc(O)c2c(c1)OC(C)(C)[C@@H]1CCC(C)=C[C@@H]21 [THC, Δ^9-tetrahydrocannabinol]
- Water absorbed [2]: 0.3%
- Onset of endothermic peak (evaporation) [3]: 200 °C
- Tg [3]: 10 °C
- % v/v water for a stable solution ([4]; EtOH (ethanol)): ≤ 53% maximum % v/v
- % v/v water for a stable solution ([4]; TBA (t-butanol)): ≤ 63% maximum % v/v
- % v/v water for a stable solution ([4]; n-PrOH (n-propanol)): ≤ 62% maximum % v/v
- Degradation of THC calibration solutions ([5]; solutions in methanol, 2 weeks at 4° C.): no significant degradation
- Degradation of THC by ultrasonic treatment ([5]; ten minutes ultrasonic treatment in methanol): no degradation
- Degradation of THC during extraction ([5]; two days of extraction in methanol): no significant degradation
- solubility at 3 days [6]: < 1 µg/mL

Compound: OC[C@@H](O)[C@@H](O[C@H]1O[C@H](CO)[C@@H](O)[C@H](O)[C@H]1O)[C@H](O)[C@@H](O)CO [Maltitol, maltitol]
- Glass transition temperature [1]: 44 °C
